Here are results for 26 compounds from US12358921B2, “Antiviral heterocyclic compounds” (priority 2022, dated 2025).

Bounds are passed on as bounds.

The test system of assay [1] is HUMAN RSV-A (“LONG” STRAIN). The assay is described as follows: RSV-A assay (CPE, ATPlite) in Hep-2 cells. Particulars: human respiratory syncytial virus, 120 h, MOI 0.1, 5-day incubation. Format: cell-based. From the text:
Methods for RSV-A Assay Hep-2 cells, (originally derived from tumors grown in irradiated-cortisonised weanling rats that had been injected with epidermoid carcinoma tissue from the larynx of a person, but later found to be indistinguishable from HeLa cells by PCR DNA analysis), were used for the culturing of genotype A, “Long” strain RSV. Flasks were inoculated with RSV and viral stocks were collected once cytopathic effect (CPE) was greater than 90%. Viral stocks in 25% sucrose media were snap frozen using liquid nitrogen to increase viral stability. Viral stock titers were quantified by tissue culture infectious dose 50% (TCID50) using 8,000 cells per well and 3-fold viral dilutions across a 96-well plate, cultured for 4 days. Viral stock titers were also quantified by a plaque forming unit assay, as described elsewhere.
Following extensive parameter testing, the final assay is run as follows: Hep-2 cells are seeded into the inner 60 wells of a 96-well plate at 8,000 cells per well in a volume of 50 μL using Growth Media (DMEM without phenol red, 1% L-Glut, 1% Penn/Strep, 1% nonessential amino acids, 10% heat-inactivated FBS). 2-fold serial dilutions of control and test compounds are added to the wells in duplicate in a total volume of 25 μL. Viral stock is then added to the wells at a multiplicity of infection (MOI) of 0.1 in a volume of 25 μL, bringing the total volume of each well to 100 μL. The MOI is calculated using the PFU/mL, or TCID50 if unavailable. Each 96-well plate has a control column of 6 wells with cells and virus but no compound (negative control, max CPE), a column with cells but no compound or virus (positive control, minimum CPE), and a column with no cells or virus or compound (background plate/reagent control). The control wells with cells but no virus are given an additional 25 μL of growth media containing an equal quantity of sucrose as those wells receiving the viral stock in order to keep consistent in media and volume conditions. The outer wells of the plate are filled with 125 μL of moat media (DMEM, 1% Penn/Strep) to act as a thermal and evaporative moat around the test wells. Following a 5-day incubation period, the plates are read using ATPlite (50 uL added per well), which quantifies the amount of ATP (a measure of cell health) present in each well. Assay plates are read using the Envision luminometer. […] EC50 ranges are as follows: A<0.2 μM; B>0.2 μM.
Background: ATP-based viability assays read luminescence as a measure of living cells.

A further assay relates to hMPV A2 TN/94-49. The assay is described as follows: HMPV antiviral assay Method 2 (LLC-MK2 cells with CP-100-356, ATP-Lite). The assay is classed as cell-based. Particulars: hMPV A2 TN/94-49, LLC-MK2 cells, 4 μM CP-100-356, Method 2. On the procedure:
In vitro HMPV antiviral activity was evaluated using the clinical isolate A2 strain TN 94-49 (obtained from Dr. John Williams, Vanderbilt University, Tennessee) and LLC-MK2 cells (Millipore Sigma CB_85062804), an immortalized kidney epithelial cell line from Macaca mulatta. Compounds were resuspended in dimethyl sulfoxide (DMSO) at 10 mM, serially diluted and added to a 384-well source plate. Subsequently, the compounds were diluted and transferred onto 384-well assay plates using the Echo-650 automated liquid handling system (Beckman Coulter, Indiana). The test compounds were assessed in duplicate at a top concentration of 200 nM followed by 2.5-fold serial dilutions to give a total of 10 concentration points. DMSO control wells were also included on the assay plates and were either infected or not, acting as positive and negative controls. A2 TN 94-49 virus infections were performed in-suspension with LLC-MK2 cells. The cells were washed twice with PBS and removed from the cell-culture flask with 0.25% trypsin-EDTA (Thermo Fisher Scientific, MA). The trypsin-EDTA was inactivated by resuspending in 2% fetal bovine serum (FBS) and OptiMEM (ThermoFisher Scientific, MA) containing 1% antibiotic-antimycotic. Cells were pelleted by centrifuging for 5 minutes at 800 rpm, the supernatant was removed, and cells were re-suspended and washed in PBS plus 100 μg/mL CaCl2). This step was performed twice. Cells were then re-suspended in serum-free (SF)-OptiMEM containing 4 μg/mL TPCK-Trypsin (Sigma Aldrich, MO), 1% antibiotic-antimycotic (ThermoFisher Scientific, MA), 100 μg/mL CaCl2), and 4 μM of CP-100-356, a P-glycoprotein inhibitor. Cells were counted and seeded at a density of 5,000 cells/well, 12.5 μL/well. Virus infections were done at a multiplicity of infection (MOI) of 0.16 with 12.5 μL added per well. Virus infections were performed in infection media which contained SF-OptiMEM, 100 μg/mL CaCl2) and 1% antibiotic-antimycotic. HMPV viral stocks are suspended in infection media+5% glycerol, thus an equal volume of infection media+5% glycerol was added to uninfected wells to equalize the final % glycerol across all wells of the assay plate. The final concentration of TPCK-trypsin was 2 μg/mL. The final concentration of CP-100-356 was 2 μM. The assay plates were incubated at 37° C., 5% CO2 for 7 days. After 7 days incubation, 12.5 μL of ATP-Lite (PerkinElmer, MA) was added to each well and the raw luminescence values were determined using the Envision 2104 (Perkin Elmer, MA). The average of the raw luminescence values for the cells and virus only positive control wells was subtracted from all conditions tested and the percent cell health was determined by dividing these values by the average of the cells only negative control wells. EC50 values were then calculated by non-linear regression using a four-parameter curve logistic equation. The curve fit model employed was XLFit Dose Response One Site Model 200: y=(A+(B/(1+((x/C)^D)))), where A is the minimum y value, B is the maximum y value, C is the log EC50value, and D is the slope factor.

In general, EC50 refers to the concentration that produces a half-maximal response. Read a low EC50 as an effect from little substance. With `[2H]c1nc2c(OC)cc(C(=O)NC[C@@](O)(c3ccccc3)c3cc4c(c(-c5cc(Cl)c(F)cc5F)n3)OC[C@]4(C)C(N)=O)cc2cc1Cl` [Example 220], the 50% effective concentration (EC50) (in assay [1]; in the assay with hMPV A2 TN/94-49) was < 200 nM in each case.

`COc1cc(C(=O)NC[C@@](O)(c2ccccc2)c2cc3c(c(-c4cc(Cl)c(F)cc4F)n2)OC[C@]3(C)C(N)=O)cn2cc(C3CC3)nc12` [Example 115]: the concentration giving a half-maximal response (EC50) (in assay [1]; in the assay on hMPV A2 TN/94-49) was < 200 nM throughout.

Regarding `[2H]C([2H])([2H])NC(=O)[C@@]1(C)COc2c1cc([C@@](O)(CNC(=O)c1cc(OC)c3nn(C4(F)CC4)cc3c1)c1ccccc1)nc2-c1cc(Cl)c(F)cc1F` [Example 109], the concentration giving a half-maximal response (EC50) (in assay [1]; in the assay with hMPV A2 TN/94-49) was < 200 nM throughout.

Take `COc1cc(C(=O)NC[C@@](O)(c2ccccc2)c2cc3c(c(-c4cc(Cl)c(F)cc4F)n2)OC[C@]3(C)C(N)=O)cc2oc(C3(F)CC3)nc12` [Example 241]: the EC50 (in assay [1]; in the assay with hMPV A2 TN/94-49) was < 200 nM throughout.

Consider `COc1cc(C(=O)NC[C@@](O)(c2cccc(F)n2)c2cc3c(c(-c4cc(Cl)c(F)cc4F)n2)OC[C@]3(C)C(N)=O)cc2cn(C3CC3)nc12` [Example 203], for which the EC50 (in assay [1]; with hMPV A2 TN/94-49) was < 200 nM in each case.

`COc1cc(C(=O)NC[C@](O)(c2cc3c(c(-c4cc(Cl)c(F)cc4F)n2)OC[C@]3(C)C(N)=O)c2nccn2C)cc2cn(C3CC3)nc12` [Example 464]: the EC50 (in assay [1]; in the assay on hMPV A2 TN/94-49) was > 200 nM in each case.

`[2H]C([2H])([2H])NC(=O)[C@@]1(C)COc2c1cc([C@@](O)(CNC(=O)c1cc(OC)c3nc(C4CC4)oc3c1)c1ccccc1)nc2-c1cc(Cl)c(F)cc1F` [Example 110]: the EC50 (in assay [1]; in the assay on hMPV A2 TN/94-49) was < 200 nM throughout.

With `COc1cc(C(=O)NC[C@@](O)(c2ccccc2)c2cc3c(c(-c4cc(F)c(F)cc4F)n2)OC[C@]3(C)C(N)=O)cc2cc(Cl)cnc12` [Example 198], the concentration for a half-maximal effect (EC50) (in assay [1]; with hMPV A2 TN/94-49) was < 200 nM in each case.

As to `COc1cc(C(=O)NC[C@@](O)(c2ccccc2)c2cc3c(c(-c4cc(C(F)F)c(F)cc4F)n2)OC[C@]3(C)C(N)=O)cc2cn(C(F)F)nc12` [Example 300], the EC50 (in assay [1]; in the assay with hMPV A2 TN/94-49) was < 200 nM throughout.

Consider `COc1cc(C(=O)NC[C@@](O)(c2cccc(F)c2)c2cc3c(c(-c4cc(C(F)(F)F)c(F)cc4F)n2)OC[C@]3(C)C(N)=O)cc2cn(C(F)F)nc12` [Example 301], for which the EC50 (in assay [1]; with hMPV A2 TN/94-49) was < 200 nM in each case.

`COc1cc(C(=O)NC[C@@](O)(c2ccccc2)c2cc3c(c(-c4cccc5c4OCO5)n2)OC[C@]3(C)C(N)=O)cc2cn(C3(F)CC3)nc12` [Example 366]: the EC50 in assay [1] was < 200 nM; in the assay on hMPV A2 TN/94-49 it was > 200 nM.

`COc1cc(C(=O)NC[C@@](O)(c2ccccc2)c2cc3c(c(-c4cc(Cl)c(F)cc4F)n2)OC[C@]3(C)C(N)=O)cc2cc(Cl)c(F)nc12` [Example 342]: the results for the EC50 (in assay [1]; in the assay on hMPV A2 TN/94-49) were < 200 nM and > 200 nM, respectively.

On to `COc1cc(C(=O)NC[C@@](O)(c2cccc(Cl)n2)c2cc3c(c(-c4cc(Cl)c(F)cc4F)n2)OC[C@]3(C)C(N)=O)cc2cn(C3CC3)nc12` [Example 489], for which the concentration giving a half-maximal response (EC50) (in assay [1]; with hMPV A2 TN/94-49) was < 200 nM each time.

As to `COc1cc(C(=O)NC[C@@](O)(c2cccc(S(C)(=O)=O)c2)c2cc3c(c(-c4cc(Cl)c(F)cc4F)n2)OC[C@]3(C)C(N)=O)cc2cn(C3CC3)nc12` [Example 483], the EC50 (in assay [1]; in the assay with hMPV A2 TN/94-49) was < 200 nM in each case.

With `COc1cc(C(=O)NC[C@@](O)(c2cccc(S(N)(=O)=O)c2)c2cc3c(c(-c4cc(Cl)c(F)cc4F)n2)OC[C@]3(C)C(N)=O)cc2cn(C3CC3)nc12` [Example 486], the EC50 in assay [1] is < 200 nM; in the assay with hMPV A2 TN/94-49, > 200 nM.

For the compound `COc1cc(C(=O)NC[C@@](O)(c2ccccc2)c2cc3c(c(-c4cc(C(F)(F)F)c(F)cc4F)n2)OC[C@]3(C)C(N)=O)cc2cn(C3CC3)nc12` [Example 302], the EC50 (in assay [1]; in the assay with hMPV A2 TN/94-49) was < 200 nM in each case.

In the case of `COc1cc(C(=O)NCC(O)(c2cc(F)nc(F)c2)c2cc3c(c(-c4cccc(Cl)c4Cl)n2)OC[C@]3(C)C(N)=O)cc2cn(C(F)F)nc12` (stereo partly shown) [Example 500], the EC50 (in assay [1]; with hMPV A2 TN/94-49) was < 200 nM each time.

`C[C@]1(C(N)=O)COc2c1cc([C@@](O)(CNC(=O)c1cc(Cl)c3[nH]ncc3c1)c1ccccc1)nc2-c1cc(Cl)c(F)cc1F` [Example 117]: the half-maximal effective concentration (EC50) in assay [1] was < 200 nM; in the assay on hMPV A2 TN/94-49, > 200 nM.

For the compound `C[C@]1(C(N)=O)COc2c1cc([C@@](O)(CNC(=O)c1cc(OC3CC3)c3nn(C4CC4)cc3c1)c1ccccc1)nc2-c1cc(Cl)c(F)cc1F` [Example 98], the concentration giving a half-maximal response (EC50) (in assay [1]; in the assay on hMPV A2 TN/94-49) was < 200 nM in each case.

Take `C[C@]1(C(N)=O)COc2c1cc([C@@](O)(CNC(=O)c1cc(OC3CC3)c3nn(C4(F)CC4)cc3c1)c1cccc(F)c1)nc2-c1cccc(Cl)c1Cl` [Example 339]: the EC50 (in assay [1]; in the assay on hMPV A2 TN/94-49) was < 200 nM in each case.

As for `COc1cc(C(=O)NC[C@@](O)(c2cccc(F)n2)c2cc3c(c(-c4cc(Cl)c(F)cc4F)n2)OC[C@]3(C)C(N)=O)cc2cn(C3(F)CC3)nc12` [Example 204], the EC50 (in assay [1]; in the assay with hMPV A2 TN/94-49) was < 200 nM throughout.

Consider `COc1cc(C(=O)NC[C@@](O)(c2ccc(=O)[nH]c2)c2cc3c(c(-c4cc(Cl)c(F)cc4F)n2)OC[C@]3(C)C(N)=O)cc2cn(C3CC3)nc12` [Example 505], for which the EC50 is < 200 nM in assay [1] and > 200 nM in the assay with hMPV A2 TN/94-49.

In the case of `C[C@]1(C(N)=O)COc2c1cc([C@@](O)(CNC(=O)c1cc(OC3CC3)c3ncc(Cl)cc3c1)c1ccccc1)nc2-c1ccc(F)c(Cl)c1Cl` [Example 313], the concentration for a half-maximal effect (EC50) (in assay [1]; in the assay on hMPV A2 TN/94-49) was < 200 nM in each case.

In the case of `COc1cc(C(=O)NC[C@@](O)(c2ccccc2)c2cc3c(c(-c4cc(C(F)(F)F)c(F)cc4F)n2)OC[C@]3(C)C(N)=O)cc2cn(C(F)F)nc12` [Example 304], the EC50 (in assay [1]; with hMPV A2 TN/94-49) was < 200 nM each time.

For `COc1cc(C(=O)NCC(O)(c2cc(F)nc(F)c2)c2cc3c(c(-c4cccc(Cl)c4Cl)n2)OC[C@]3(C)C(N)=O)cc2cn(C3CC3)nc12` (stereo partly shown) [Example 499], the EC50 (in assay [1]; in the assay with hMPV A2 TN/94-49) was < 200 nM each time.

Turning to `COc1cc(C(=O)NC[C@@](O)(c2ccccc2)c2cc3c(c(-c4cccc(Cl)c4Cl)n2)OC[C@]3(C)C(N)=O)cc2oc(C)nc12` [Example 95], the EC50 (in assay [1]; in the assay on hMPV A2 TN/94-49) was < 200 nM throughout.
